Results: US20240307220A1, “Combination Therapy to Treat Temperature Sensitive Mutant Tumors” (H. LEE MOFFITT CANCER CENTER AND RESEARCH INSTITUTE INC., priority 2021, published 2024)

Legend:
[1] = Pharmacological induction of hypothermia by CHA in nude mice; type: in vivo
Protocol: FIGS. 6A to 6D show hypothermia inhibits the growth of tumors expressing ts p53. […] One group of mice was treated with 32° C. hypothermia in 24 hr×6 format. Control animals (37° C.) were not treated. […] Tumor size (mean±SD) was plotted over time.
Animal experiment. Animal experiments were reviewed and approved by the University of South Florida IACUC. Athymic female nude mice (6-week old, Athymic Nude-Foxn1nu, Envigo) were injected subcutaneously with 0.1 ml 1:1 slurry of Matrigel (VWR 47743-715) and 1×10^7 cells in PBS at each site. The inoculated mice were housed in a cabinet set to 28° C. (ARIA BIO-C36 ventilated cabinet, TECNIPLAST) to ensure that tumors develop at ˜37° C. Each mouse received injections at 2 sites, tumors formed at >80% of sites injected with GA10 cells. N^6-cyclohexyladenosine (CHA, Sigma C9901) was dissolved at 20 mg/ml in 25% (2-Hydroxypropyl)-β-cyclodextrin (w/v, Sigma H107) and heated at 65° C. for 10 min to ensure dissolution. Camptothecin (CPT, Santa Cruz Biotechnology sc-200871B) was freshly dissolved in 1 N NaOH, diluted to ˜0.5 mg/ml with saline, and adjusted to pH10 using HCl. To induce hypothermia, 0.2 ml saline+10% glucose containing CHA and CPT was administered by intra peritoneal injection to provide a CHA dosage of 10 mg/kg body weight and CPT (when indicated) dosage of 1.5 mg/kg body weight. The mice were kept in the 28° C. cabinet and monitored using infrared thermal imaging camera (FLIR ONE Pro, FLIR® Systems, Inc.) to verify that body temperature was maintained at ˜32° C. A second injection of CHA (10 mg/kg) in 0.4 ml saline+10% glucose was given after 10 hours to maintain hypothermia for ˜24 hours. A third injection of CHA (10 mg/kg) in 0.4 ml saline+10% glucose was given after 10 hours to maintain hypothermia for ˜32 hours. After regaining normal body temperature, the mice were kept for 2-4 days in the 28° C. cabinet to allow weight recovery (˜10% weight loss occurred during hypothermia due to loss of mobility and food intake). The treatment was repeated 4-5 times (24 hr×6 or 32 hr×5 format). In each subsequent round CHA dosage was increased by 25% to compensate for the gradual loss of sensitivity.
Pharmacological induction of hypothermia. To test the effect of hypothermia on tumors with ts p53, the adenosine A1 receptor (A1AR) agonist CHA ([…]) was used to lower mouse body temperature to 32° C. for 24-48 hours. […] Intraperitoneal injection of CHA caused body temperature to decrease to ˜3° C. above the environment in ˜10 minutes, consistent with the induction of hibernation-like response in rats and mice by A1AR agonists (Tupone D, et al. J Neurosci 2013 33:14512-25; Futatsuki T, et al. Sci Rep 2018 8:2717). […] This was achieved by keeping the CHA-treated mice in a 28° C. environment (FIG. 6A). […]

UC3 bladder cancer cells = assay: UC3 colony formation after 2 hrs drug treatment, washout and 32° C. or 37° C. incubation; type: cell-based; conditions: 2 hrs drug at 37° C., washout, 32° C. vs 37° C. 24 hrs, then 7 days at 37° C.
Protocol: FIGS. 17A and 17B show hypothermia treatment given after chemotherapy enhances drug response in bladder cancer. […] The washed cells were incubated at 32° C. or 37° C. for 24 hrs, followed by 7 days at 37° C. and crystal violet staining for colony formation.
Standard bladder intravesical chemotherapy involves 1-2 hr irrigation with drugs at 37° C. or 42° C. The effect of treating cells with 32° C. hypothermia after chemotherapy was tested to avoid interference with drug uptake. TS mutant p53 activation peaks 6-8 hrs after shift to 32° C., which should cooperate with chemotherapy-induced DNA damage to induce cell death. […] Saline irrigation of up to 24 hrs is routinely performed after transurethral resection of bladder tumor (TURBT) procedure to prevent clotting. Therefore, irrigation with cooled saline after intravesical chemotherapy is expected to be well-tolerated and safe.

[2] = system: H1299 cells expressing A138V; assay: ChIP of p53 DNA binding in H1299 expressing A138V shifted to 32° C. with CHX or 17-AAG; type: cell-based, human; parameters: rescue of p53 DNA binding at 32° C. (ChIP): dose or concentration left out as unconfirmed
Protocol: FIGS. 4A to 4E show molecular chaperones mediate refolding of stockpiled ts p53 at permissive temperature. […] P53 binding to p21 promoter was determined by ChIP. […] P53 DNA binding was determined by ChIP. FIG. 4C is a diagram of cell-free luciferase fragment complementation assay that detects the DNA binding of p53-Cluc fusion protein. ZF-Nluc and p53-Cluc binding to DNA containing ZF and p53 sites juxtapose Nluc and Cluc domains to restore luciferase activity. […] The heat-treated p53-Cluc proteins were mixed with ZF-Nluc, DNA, ATP, E. coli extract containing 5 chaperones and incubated for 3 hrs at 23° C. P53 DNA binding was detected by measuring luciferase activity. The results are average of 3 experiments (mean±SD). **p<0.01.
Chromatin immunoprecipitation (ChIP). ChIP assay was performed using standard procedure. Crosslinked p53-DNA complexes were immunoprecipitated with DO-1 antibody. Samples were subjected to SYBR Green real-time PCR analysis using forward and reverse primers for the p53 binding sites in the p21 promoter ([…] (SEQ ID NO:7) and […] (SEQ ID NO:8)), and PUMA promoter ([…] (SEQ ID NO:9) and […] (SEQ ID NO:10)).

[3] = nude mice, intraperitoneal injection

OC[C@H]1O[C@@H](n2cnc3c(NC4CCCCC4)ncnc32)[C@H](O)[C@@H]1O [CHA, N^6-cyclohexyladenosine]
weight loss during hypothermia ([1]; CHA 10 mg/kg injections, due to loss of mobility and food intake): ~10%
duration body temperature maintained at 32° C. ([1]; multiple injections of CHA, 28° C. environment): 24 to 32 h
body temperature after CHA injection [1, 3]: ~3 °C above the environment
time for body temperature decrease [1, 3]: ~10 min

Nc1ccn([C@@H]2O[C@H](CO)[C@@H](O)C2(F)F)c(=O)n1 [Gemcitabine]
effect of 32° C. for 24 hrs after drug on growth inhibition (colony formation) (UC3 bladder cancer cells): modestly increased

C=CCNC1=C2C[C@@H](C)C[C@H](OC)[C@H](O)[C@@H](C)/C=C(\C)[C@H](OC(N)=O)[C@@H](OC)/C=C\C=C(/C)C(=O)NC(=CC1=O)C2=O [17-AAG]
p53 activation at 32° C. (ChIP DNA binding) ([2]; 50 μM 17-AAG): blocked p53 activation

COc1cccc2c1C(=O)c1c(O)c3c(c(O)c1C2=O)C[C@@](O)(C(=O)CO)C[C@@H]3O[C@H]1C[C@H](N)[C@H](O)[C@H](C)O1 [Doxorubicin]
effect of 32° C. for 24 hrs after drug on growth inhibition (colony formation) (UC3 bladder cancer cells): modestly increased

C[C@@H]1C[C@@H]([C@H](O)CC2CC(=O)NC(=O)C2)C(=O)[C@@H](C)C1 [cycloheximide]
rescue of p53 DNA binding at 32° C. (ChIP) ([2]; cycloheximide (CHX)): did not prevent the rescue of DNA binding
